Laboratory results reported in PubChem BioAssay AID1996.
Converted amounts (≈) assume the structure as drawn.

Conditions: buffer; pH 7.4; 200.0 µM

`C/C(=N/NC(=O)c1ccccn1)c1ccncc1` and `O=C(Nc1ncccn1)c1cccc(F)c1` cannot be ordered by solubility kinetic: > 36 µg/mL for the first, > 32.6 µg/mL for the second.

`O=C(Nc1nnc2n1CCS2)c1ccc(Br)o1` and `N#Cc1ccsc1NC(=O)C1=COCCO1` cannot be ordered by solubility kinetic: > 47.3 µg/mL for the first, > 35.4 µg/mL for the second.

Going from `COc1ccc(CC(=O)N2CCC(c3ccccc3)C2)cc1` (stereo unspecified) to `O=C(CN1CCCC1)Nc1ccc(OCc2ccccc2)cc1`, the solubility kinetic rises from 40.8 µg/mL (≈ 138 µM) to > 46.6 µg/mL.

Compared with `CN(Cc1ccccc1Cl)C(=O)c1cc2ccccc2o1`, `O=C(CCc1nc2ccccc2s1)NCc1ccccc1F` is higher in solubility kinetic: 13.7 µg/mL (≈ 45.7 µM) for the first, > 47.2 µg/mL for the second.

First: COc1ccc(Cl)cc1Nc1nc(N)c2ccccc2n1.Cl
Second: COc1cc(C)nc(NS(=O)(=O)c2ccccc2Cl)n1
The solubility kinetic of the first is 7.3-fold lower: 5.3 µg/mL for the first, 38.9 µg/mL (≈ 124 µM) for the second.

Going from `CC(NC(=O)c1cccs1)C1CCCO1` (stereo unspecified) to `CC1CC(C)CN(CC(=O)c2cccs2)C1` (stereo unspecified), the solubility kinetic falls from > 33.8 µg/mL to 30.8 µg/mL (≈ 130 µM).

Compared with `Cc1ccc(N(CC(=O)N2CCN(Cc3ccccc3)CC2)S(C)(=O)=O)cc1C`, `Cc1cccc(CN2CCN(c3ncccn3)CC2)c1` is 1.7-fold lower in solubility kinetic: 50.9 µg/mL (≈ 122 µM) for the first, 30.6 µg/mL (≈ 114 µM) for the second.

Going from `CCCC1(CCC)NC(=O)N(CC(=O)Nc2ccc(Cl)c(S(=O)(=O)N3CCOCC3)c2)C1=O` to `CC1CCC2(CC1)NC(=O)N(CC(=O)c1ccc3c(c1)OCO3)C2=O` (stereo unspecified), the solubility kinetic falls from 73.2 µg/mL (≈ 146 µM) to 3.8 µg/mL (≈ 11 µM) (19-fold).

Compared with `Cc1ccc(N=C2C(=O)Nc3ccccc32)c(C)c1`, `Cc1ccc2[nH]c(C)c(CC(=O)NCc3ccccc3)c2c1` is higher in solubility kinetic: 28.8 µg/mL (≈ 115 µM) for the first, > 43.9 µg/mL for the second.

First: CCn1c(SCc2ccccc2)nc2c1c(=O)[nH]c(=O)n2C
Second: CCc1cccc(C)c1NC(=O)COC(=O)CSCc1ccccc1
The solubility kinetic of the first is 2.9-fold higher: 39.3 µg/mL (≈ 124 µM) for the first, 13.7 µg/mL (≈ 38.3 µM) for the second.

`Cn1c(/C=N/O)nc2ccccc21` and `COc1nc2ccccc2nc1CCC(=O)O` cannot be ordered by solubility kinetic: > 26.3 µg/mL for the first, > 34.8 µg/mL for the second.

Going from `CC(C)CNC1CS(=O)(=O)CC1O.Cl` (stereo unspecified) to `CC(C)c1ccc(NC(=O)COc2ccc(C3SCCS3)cc2)cc1`, the solubility kinetic falls from > 36.6 µg/mL to 4.1 µg/mL (≈ 11 µM).

Compared with `O=C(Cn1c(=O)oc2ccc(Cl)cc21)Nc1ccon1`, `Cc1ccc(-c2noc(=O)n2CC(=O)c2ccc(Cl)cc2)cc1` is lower in solubility kinetic: 6.2 µg/mL (≈ 21.1 µM) for the first, < 0.4 µg/mL for the second.

Going from `Clc1ccc(-c2nc3cc(CN4CCCCC4)ccc3o2)cc1` to `COc1cccc(-c2nc3ccc(N4CCN(C)CC4)cc3[nH]2)c1`, the solubility kinetic falls from 23.1 µg/mL (≈ 70.7 µM) to 14.5 µg/mL (≈ 45 µM) (1.6-fold).

Going from `Cc1ccc(S(=O)(=O)N2CCc3ccccc3C2)cc1` to `O=S(=O)(c1ccc2c(c1)CCCN2)N1CCCCC1`, the solubility kinetic rises from < 0.6 µg/mL to > 42.1 µg/mL.

`COc1cc(/C=C/C(=O)Nc2cccnc2)cc(OC)c1OC` and `COc1cccc(C(NC(C)=O)c2ccc3cccnc3c2O)c1` (stereo unspecified) are within 1.5-fold of each other in solubility kinetic: 40.9 µg/mL (≈ 130 µM) for the first, 44.4 µg/mL (≈ 138 µM) for the second.

`CCOc1ccc(S(=O)(=O)Nc2nccs2)cc1` and `O=C(Nc1ccc(S(=O)(=O)Nc2ncccn2)cc1)C12CC3CC(CC(Cl)(C3)C1)C2` cannot be ordered by solubility kinetic: > 42.7 µg/mL for the first, > 67 µg/mL for the second.

`Cc1cc(SCC(=O)NC2CC2)nc2ccccc12` and `CCCNC(=O)N1CCC(Cc2ccccc2)CC1` cannot be ordered by solubility kinetic: > 40.9 µg/mL for the first, > 39.1 µg/mL for the second.

Compared with `COc1ccccc1-c1nc(=S)c(C(C)=O)c(C)[nH]1`, `COc1ccccc1C1NC(=O)NC(C)=C1C(=O)OC1CCC(C)CC1` (stereo unspecified) is lower in solubility kinetic: > 41.2 µg/mL for the first, < 0.4 µg/mL for the second.

First: Cc1cccc(NC(=O)c2ccc(N3C(=O)C4CCCCC4C3=O)cc2)c1C (stereo unspecified)
Second: O=C(CN1C(=O)c2ccccc2C1=O)Nc1cccc(O)c1
The solubility kinetic of the first is 1.8-fold lower: 20.6 µg/mL (≈ 54.7 µM) for the first, 37 µg/mL (≈ 125 µM) for the second.

Compared with `CCSc1c([N+](=O)[O-])c(=O)n(-c2ccccc2)c2ccccc12`, `Cc1noc(C)c1NC(=O)NC(c1ccccc1)c1ccccc1` is 7.8-fold higher in solubility kinetic: 1.3 µg/mL (≈ 3.98 µM) for the first, 10.2 µg/mL (≈ 31.7 µM) for the second.

`C=CCN(CC=C)C(=S)Nc1cc(Cl)ccc1OC` and `COc1cc(OC)cc(C(=O)NCc2ccc3c(c2)OCO3)c1` cannot be ordered by solubility kinetic: > 44.5 µg/mL for the first, 46.1 µg/mL (≈ 146 µM) for the second.

Going from `CN(C)CCCNc1oc(/C=C/c2ccccc2)nc1C#N` to `CN(Cc1nc(-c2ccccc2)no1)C1CCOCC1`, the solubility kinetic falls from > 44.5 µg/mL to 36.7 µg/mL (≈ 134 µM).

Going from `CCCc1ccc(-c2ccc(-c3noc(-c4ccncc4)n3)cc2)nc1` to `c1ccc(Nc2ccnc(Nc3ccccc3)n2)cc1`, the solubility kinetic rises from < 0.2 µg/mL to 6.7 µg/mL (≈ 25.5 µM).

`COc1ccc(Nc2nc(N)c([N+](=O)[O-])c(N3CCCC3)n2)cc1` and `COc1ccc(-n2ccnc2)cc1` cannot be ordered by solubility kinetic: 26.5 µg/mL (≈ 80.2 µM) for the first, > 26.1 µg/mL for the second.

Compared with `CC(C)c1ccc(C2NC(=O)c3ccccc3O2)cc1` (stereo unspecified), `N#Cc1ccc(OCC(=O)OCC(=O)c2ccccc2)cc1` is higher in solubility kinetic: 1 µg/mL (≈ 3.74 µM) for the first, > 44.3 µg/mL for the second.

`CCN1CCCC1CNC(=O)c1cc2cc(F)ccc2[nH]1` (stereo unspecified) and `O=C(OCC(=O)N1CCCCCC1)c1ccc(F)cc1F` cannot be ordered by solubility kinetic: > 43.4 µg/mL for the first, 44.4 µg/mL (≈ 149 µM) for the second.

`CC1CC(C)(C)NC(=S)O1` (stereo unspecified) and `CCOC(=O)c1c(C)[nH]c(C(=O)N2CCN(CC)CC2)c1C` cannot be ordered by solubility kinetic: > 23.9 µg/mL for the first, > 46.1 µg/mL for the second.

First: Cc1ccc(NC(=O)CSc2ccc3c(c2)OCCO3)c(O)c1
Second: CSc1ncccc1C(=O)N1CCN(S(=O)(=O)c2ccc3c(c2)OCCO3)CC1
The solubility kinetic of the first is lower: 36.9 µg/mL (≈ 111 µM) for the first, > 65.3 µg/mL for the second.

`O=S1(=O)CCN(OCc2ccc(F)cc2Cl)CC1` and `CCC(C)NC(=O)c1cc2c(=O)n3cccc(C)c3nc2s1` (stereo unspecified) are within 1.5-fold of each other in solubility kinetic: 43.1 µg/mL (≈ 147 µM) for the first, 46 µg/mL (≈ 146 µM) for the second.

With `S=c1[nH]cc(-c2ccccc2)[nH]1` the solubility kinetic was > 26.4 µg/mL.
